Where two headings read alike, the source gives them in different places.
Legend:
Test in all cases: RNA-dependent DNA polymerase assay, [3H]-dTTP incorporation
Type in all cases: biochemical
[1] = target: T1, C RT-2 (HIV-1 subtype C RT, isolate M01) (HIV-1 M:C_92BR025, UniProt O12158); conditions: HIV-1 PBS RNA/dPR template/primer 30 nM, dNTPs 5 μM each, 6 mM MgCl2, 60 mM KCl, pH 7.8, 37°C, 30 min, read-out: IC50 (μM)^a / C RT-2 ^e
T1 construct: gene gag-pol; p66/p51 heterodimer cut from the Pol (Gag-Pol) polyprotein; His-tagged, E. coli; with p51 RT of Gag-Pol polyprotein
Text: RNA-dependent DNA polymerase assay, [3H]-dTTP incorporation on C RT-2 (HIV-1 subtype C RT, isolate M01)

[2] = target: T2, B RT-1 (HIV-1 subtype B RT, NL4-3) (Human immunodeficiency virus type 1 (NEW YORK-5 ISOLATE), UniProt P12497)
T2 construct: gene gag-pol; p66/p51 heterodimer cut from the Pol (Gag-Pol) polyprotein; plasmid pbRT6H-PROT with co-expressed HIV-1 protease; 6-His tag; E. coli M15; Ni-NTA, DEAE- and SP-Sepharose; with p51 RT of Gag-Pol polyprotein
Text: RNA-dependent DNA polymerase assay, [3H]-dTTP incorporation on B RT-1 (HIV-1 subtype B RT, NL4-3)

[3] = target: T3, B RT-2 (HIV-1 subtype B RT, HXB2) (HIV-1 M:B_HXB2R, UniProt P04585)
T3 construct: gene gag-pol; p66/p51 heterodimer cut from the Pol (Gag-Pol) polyprotein; plasmid pRT6H-PROT with co-expressed HIV-1 protease; 6-His tag; E. coli M15; Ni-NTA, DEAE- and SP-Sepharose; with p51 RT of Gag-Pol polyprotein
Text: RNA-dependent DNA polymerase assay, [3H]-dTTP incorporation on B RT-2 (HIV-1 subtype B RT, HXB2)

[4] = nucleotide analogue, competitive at active site
[5] = NNRTI, non-competitive allosteric
[6] = read-out: IC50 (μM)^a / B RT-2^c
[7] = read-out: IC50 (μM)^a / B RT-1^b

`Nc1ccn([C@@H]2CS[C@H](COP(=O)(O)OP(=O)(O)OP(=O)(O)O)O2)c(=O)n1` [3TC-TP] showed an IC50 [1, 4] of 4.1 ± 0.4 µM and an IC50 [2] of 2.7 ± 0.3 µM.

In the case of `O=C1Nc2ccc(Cl)cc2[C@@](C#CC2CC2)(C(F)(F)F)O1` [EFV], the IC50 [1, 5] is reported as 0.18 ± 0.02 µM.

In the case of `Cc1cc(C#N)cc(C)c1Oc1nc(Nc2ccc(C#N)cc2)nc(N)c1Br` [ETR], the IC50 [1, 5] is reported as 0.19 ± 0.03 µM, the IC50 [3, 6] is reported as 0.16 ± 0.02 µM and the IC50 [2, 7] is reported as 0.17 ± 0.03 µM.

`Cc1ccnc2c1NC(=O)c1cccnc1N2C1CC1` [NVP] showed an IC50 [1, 5] of 4.3 ± 0.3 µM.

For `C[C@H](Cn1cnc2c(N)ncnc21)OCP(=O)(O)OP(=O)(O)OP(=O)(O)O` [TFV-DP], the IC50 [1, 4] was 2.9 ± 0.4 µM, the IC50 [3, 6] was 2.1 ± 0.3 µM and the IC50 [2, 7] was 2.5 ± 0.3 µM.

`Cc1cn([C@H]2C[C@H](N=[N+]=[N-])[C@@H](CO[P@](=O)(O)O[P@](=O)(O)OP(=O)(O)O)O2)c(=O)[nH]c1=O` [ZDV-TP] gave an IC50 ([1]; 150 μM sodium pyrophosphate included, nucleotide analogue, competitive at active site) of 3.8 ± 0.5 µM and an IC50 [3] of 2.9 ± 0.4 µM.
